# Results taken from PMC4508061, “Selectivity Profiling and Biological Activity of Novel β-Carbolines as Potent and Selective DYRK1 Kinase Inhibitors” (PLoS ONE, 2015).
# Tests used:
# Experiment in all cases: ProQinase radiometric kinase panel
# Conditions in all cases: mean of 2 exp.
# S6K-beta = S6K-beta (Homo sapiens, UniProt Q9UBS0)
# ITK = ITK (Homo sapiens, UniProt Q08881)
# MKK6 (S207D/T211D) = MKK6 (S207D/T211D) (Homo sapiens, UniProt P52564, S207D/T211D)
# SGK2 = SGK2 (Homo sapiens, UniProt Q9HBY8)
# LRRK2 = LRRK2 (Homo sapiens, UniProt Q5S007)
# TGFB-R1 = TGFB-R1 (Homo sapiens, UniProt P36897)
# PIM1 = PIM1 (Homo sapiens, UniProt P11309)
# ASK1 = ASK1 (Homo sapiens, UniProt Q99683)
# VEGF-R1 = VEGF-R1 (Homo sapiens, UniProt P17948)
# IKK-beta = IKK-beta (Homo sapiens, UniProt O14920)
# S6K = S6K (Homo sapiens, UniProt P23443)
# CDK2/CycE1 = CDK2/CycE1 (Homo sapiens, UniProt P24941)
# SNF1LK2 = SNF1LK2 (Homo sapiens, UniProt Q9H0K1)
# HIPK1 = HIPK1 (Homo sapiens, UniProt Q86Z02)
# PIM2 = PIM2 (Homo sapiens, UniProt Q9P1W9)
# GRK4 = GRK4 (Homo sapiens, UniProt P32298)
# CK1-gamma1 = CK1-gamma1 (Homo sapiens, UniProt Q9HCP0)
# MEK1 = MEK1 (Homo sapiens, UniProt Q02750)
# PHKG2 = PHKG2 (Homo sapiens, UniProt P15735)
# PKC-beta2 = PKC-beta2 (Homo sapiens, UniProt P05771)
# TRK-B = TRK-B (Homo sapiens, UniProt Q16620)
# RIPK2 = RIPK2 (Homo sapiens, UniProt O43353)
# MET = MET (Homo sapiens, UniProt P08581)
# PDGFR-alpha = PDGFR-alpha (Homo sapiens, UniProt P16234)
# Aurora-B = Aurora-B (Homo sapiens, UniProt Q96GD4)
# MST3 = MST3 (Homo sapiens, UniProt Q9Y6E0)
# TAOK2 = TAOK2 (Homo sapiens, UniProt Q9UL54)
# CDK8/CycC = CDK8/CycC (Homo sapiens, UniProt P49336)
# AXL = AXL (Homo sapiens, UniProt P30530)
# BMX = BMX (Homo sapiens, UniProt P51813)
# JNK2 = JNK2 (Homo sapiens, UniProt P45984)
# Protocol: Gini coefficients were calculated and the Lorenz curve (Fig 3B) was plotted by applying the Microsoft Excel spreadsheet provided by Graczyk [44].
# radiometric protein kinase assays.
# GSG2 (Haspin) = GSG2 (Haspin) (Homo sapiens, UniProt Q8TF76)
# CAMK2B = CAMK2B (Homo sapiens, UniProt Q13554)
# CDC42BPA = CDC42BPA (Homo sapiens, UniProt Q5VT25)
# PAK1 = PAK1 (Homo sapiens, UniProt Q13153)
# PLK3 = PLK3 (Homo sapiens, UniProt Q9H4B4)
# MYLK3 = MYLK3 (Homo sapiens, UniProt Q32MK0)
# RON = RON (Homo sapiens, UniProt Q04912)
# ALK = ALK (Homo sapiens, UniProt Q9UM73)
# PIM2, sequence (Q9P1W9 whole entry): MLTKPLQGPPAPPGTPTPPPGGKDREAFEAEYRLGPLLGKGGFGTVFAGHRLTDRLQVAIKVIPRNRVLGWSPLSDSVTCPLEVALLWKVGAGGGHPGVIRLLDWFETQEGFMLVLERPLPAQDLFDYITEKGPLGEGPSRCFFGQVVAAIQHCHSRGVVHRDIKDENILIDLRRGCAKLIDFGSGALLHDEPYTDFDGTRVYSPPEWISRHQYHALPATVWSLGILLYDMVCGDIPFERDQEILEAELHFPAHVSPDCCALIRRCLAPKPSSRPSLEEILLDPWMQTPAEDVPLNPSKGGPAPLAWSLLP
# HIPK1, sequence (Q86Z02 whole entry): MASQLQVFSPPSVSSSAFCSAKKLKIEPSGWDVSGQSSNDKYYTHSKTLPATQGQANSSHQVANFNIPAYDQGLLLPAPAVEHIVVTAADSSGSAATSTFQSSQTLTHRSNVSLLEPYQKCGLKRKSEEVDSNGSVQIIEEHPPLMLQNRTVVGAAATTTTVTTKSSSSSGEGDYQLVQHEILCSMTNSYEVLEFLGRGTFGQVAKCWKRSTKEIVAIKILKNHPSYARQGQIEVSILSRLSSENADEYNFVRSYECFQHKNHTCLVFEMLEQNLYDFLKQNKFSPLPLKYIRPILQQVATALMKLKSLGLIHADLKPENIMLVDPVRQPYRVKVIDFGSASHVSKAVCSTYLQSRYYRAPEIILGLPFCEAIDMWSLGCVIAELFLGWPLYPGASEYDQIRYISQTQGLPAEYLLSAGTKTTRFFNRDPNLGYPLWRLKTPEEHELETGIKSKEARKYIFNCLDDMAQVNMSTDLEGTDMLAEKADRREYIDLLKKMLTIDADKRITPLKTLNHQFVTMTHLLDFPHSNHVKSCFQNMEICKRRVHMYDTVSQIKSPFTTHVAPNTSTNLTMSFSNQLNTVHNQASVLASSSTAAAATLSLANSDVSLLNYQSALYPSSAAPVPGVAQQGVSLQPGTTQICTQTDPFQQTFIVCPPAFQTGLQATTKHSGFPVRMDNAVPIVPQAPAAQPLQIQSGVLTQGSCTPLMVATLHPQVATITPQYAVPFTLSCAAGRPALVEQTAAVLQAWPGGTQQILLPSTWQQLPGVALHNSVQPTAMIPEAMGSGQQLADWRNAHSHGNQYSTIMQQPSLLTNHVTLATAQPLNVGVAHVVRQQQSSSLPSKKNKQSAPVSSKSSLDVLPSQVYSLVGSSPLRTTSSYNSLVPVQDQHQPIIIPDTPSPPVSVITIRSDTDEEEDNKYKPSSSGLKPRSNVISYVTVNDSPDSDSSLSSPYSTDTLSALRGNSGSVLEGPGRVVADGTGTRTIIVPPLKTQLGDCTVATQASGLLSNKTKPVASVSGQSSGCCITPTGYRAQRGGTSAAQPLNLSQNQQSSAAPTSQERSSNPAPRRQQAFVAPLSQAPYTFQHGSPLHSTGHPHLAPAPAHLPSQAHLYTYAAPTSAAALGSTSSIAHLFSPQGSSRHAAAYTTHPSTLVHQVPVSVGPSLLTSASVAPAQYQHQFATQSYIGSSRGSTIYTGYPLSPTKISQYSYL
# MST3, sequence (Q9Y6E0 whole entry): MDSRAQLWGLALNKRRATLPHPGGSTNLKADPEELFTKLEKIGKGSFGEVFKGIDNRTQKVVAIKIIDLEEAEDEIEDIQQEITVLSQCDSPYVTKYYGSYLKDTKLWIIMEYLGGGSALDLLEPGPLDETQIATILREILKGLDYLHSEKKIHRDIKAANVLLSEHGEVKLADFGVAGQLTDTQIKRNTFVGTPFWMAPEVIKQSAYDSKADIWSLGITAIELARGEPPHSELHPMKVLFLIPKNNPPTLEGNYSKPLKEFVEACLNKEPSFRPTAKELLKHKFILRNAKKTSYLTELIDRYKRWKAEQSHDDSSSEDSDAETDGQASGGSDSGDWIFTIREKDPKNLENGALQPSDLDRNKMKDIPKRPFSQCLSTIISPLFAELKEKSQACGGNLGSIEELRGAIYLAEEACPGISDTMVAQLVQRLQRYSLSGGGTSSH
# RIPK2, sequence (O43353 whole entry): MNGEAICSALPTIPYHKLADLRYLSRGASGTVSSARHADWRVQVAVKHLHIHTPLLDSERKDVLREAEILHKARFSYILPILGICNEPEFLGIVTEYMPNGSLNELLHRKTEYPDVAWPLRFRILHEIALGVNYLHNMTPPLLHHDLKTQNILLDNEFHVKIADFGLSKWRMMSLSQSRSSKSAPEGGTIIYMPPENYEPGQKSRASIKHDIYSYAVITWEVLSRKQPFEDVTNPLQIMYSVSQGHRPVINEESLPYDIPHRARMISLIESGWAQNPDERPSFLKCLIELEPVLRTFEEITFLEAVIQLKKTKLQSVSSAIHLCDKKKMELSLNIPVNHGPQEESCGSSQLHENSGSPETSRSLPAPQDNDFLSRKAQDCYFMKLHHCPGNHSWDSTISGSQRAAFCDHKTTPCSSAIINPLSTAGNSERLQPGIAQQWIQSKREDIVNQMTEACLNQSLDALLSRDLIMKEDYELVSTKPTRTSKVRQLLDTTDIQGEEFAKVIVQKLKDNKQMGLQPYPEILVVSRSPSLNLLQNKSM
# PAK1, sequence (Q13153 whole entry): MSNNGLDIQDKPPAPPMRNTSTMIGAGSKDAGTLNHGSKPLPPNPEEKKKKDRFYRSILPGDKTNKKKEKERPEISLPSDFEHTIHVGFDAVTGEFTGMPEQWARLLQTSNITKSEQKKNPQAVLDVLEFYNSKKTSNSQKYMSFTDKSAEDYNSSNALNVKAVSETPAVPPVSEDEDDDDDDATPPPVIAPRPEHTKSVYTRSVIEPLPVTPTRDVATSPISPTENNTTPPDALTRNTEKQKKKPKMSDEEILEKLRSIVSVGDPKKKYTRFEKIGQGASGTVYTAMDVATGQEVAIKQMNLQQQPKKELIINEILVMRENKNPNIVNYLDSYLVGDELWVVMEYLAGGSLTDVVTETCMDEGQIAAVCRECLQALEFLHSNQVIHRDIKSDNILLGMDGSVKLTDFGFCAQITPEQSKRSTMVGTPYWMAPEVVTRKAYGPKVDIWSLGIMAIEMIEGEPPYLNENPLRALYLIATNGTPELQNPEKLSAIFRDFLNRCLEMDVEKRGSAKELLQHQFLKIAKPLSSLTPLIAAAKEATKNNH
# PLK3, sequence (Q9H4B4 whole entry): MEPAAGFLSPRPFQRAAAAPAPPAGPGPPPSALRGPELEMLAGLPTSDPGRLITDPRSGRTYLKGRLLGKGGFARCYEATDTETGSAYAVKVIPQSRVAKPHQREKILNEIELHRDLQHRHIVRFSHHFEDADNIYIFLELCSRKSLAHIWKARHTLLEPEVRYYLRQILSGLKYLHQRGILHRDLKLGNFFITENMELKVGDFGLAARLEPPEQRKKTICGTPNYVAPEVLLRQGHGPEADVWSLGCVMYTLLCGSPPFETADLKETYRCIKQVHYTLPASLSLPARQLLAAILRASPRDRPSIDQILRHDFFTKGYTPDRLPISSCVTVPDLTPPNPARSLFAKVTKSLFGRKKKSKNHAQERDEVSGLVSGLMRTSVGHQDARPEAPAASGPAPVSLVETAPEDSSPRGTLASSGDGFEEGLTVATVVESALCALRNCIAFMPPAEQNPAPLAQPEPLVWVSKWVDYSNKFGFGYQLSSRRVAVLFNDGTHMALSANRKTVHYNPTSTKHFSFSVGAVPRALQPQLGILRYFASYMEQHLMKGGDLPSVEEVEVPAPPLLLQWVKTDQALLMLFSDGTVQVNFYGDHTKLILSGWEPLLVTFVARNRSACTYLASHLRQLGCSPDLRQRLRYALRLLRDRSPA
# JNK2, sequence (P45984 whole entry): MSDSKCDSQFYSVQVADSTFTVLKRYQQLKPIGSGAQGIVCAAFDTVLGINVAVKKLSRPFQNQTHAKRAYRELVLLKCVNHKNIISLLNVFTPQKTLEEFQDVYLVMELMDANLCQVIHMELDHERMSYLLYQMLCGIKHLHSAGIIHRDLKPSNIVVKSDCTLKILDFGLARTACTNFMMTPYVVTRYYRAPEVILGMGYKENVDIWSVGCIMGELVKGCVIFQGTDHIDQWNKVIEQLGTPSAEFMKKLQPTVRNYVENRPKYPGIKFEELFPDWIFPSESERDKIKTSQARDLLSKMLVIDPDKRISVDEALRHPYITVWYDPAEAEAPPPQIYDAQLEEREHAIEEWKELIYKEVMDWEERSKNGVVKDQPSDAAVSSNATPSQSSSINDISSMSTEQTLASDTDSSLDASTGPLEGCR
# BMX, sequence (P51813 whole entry): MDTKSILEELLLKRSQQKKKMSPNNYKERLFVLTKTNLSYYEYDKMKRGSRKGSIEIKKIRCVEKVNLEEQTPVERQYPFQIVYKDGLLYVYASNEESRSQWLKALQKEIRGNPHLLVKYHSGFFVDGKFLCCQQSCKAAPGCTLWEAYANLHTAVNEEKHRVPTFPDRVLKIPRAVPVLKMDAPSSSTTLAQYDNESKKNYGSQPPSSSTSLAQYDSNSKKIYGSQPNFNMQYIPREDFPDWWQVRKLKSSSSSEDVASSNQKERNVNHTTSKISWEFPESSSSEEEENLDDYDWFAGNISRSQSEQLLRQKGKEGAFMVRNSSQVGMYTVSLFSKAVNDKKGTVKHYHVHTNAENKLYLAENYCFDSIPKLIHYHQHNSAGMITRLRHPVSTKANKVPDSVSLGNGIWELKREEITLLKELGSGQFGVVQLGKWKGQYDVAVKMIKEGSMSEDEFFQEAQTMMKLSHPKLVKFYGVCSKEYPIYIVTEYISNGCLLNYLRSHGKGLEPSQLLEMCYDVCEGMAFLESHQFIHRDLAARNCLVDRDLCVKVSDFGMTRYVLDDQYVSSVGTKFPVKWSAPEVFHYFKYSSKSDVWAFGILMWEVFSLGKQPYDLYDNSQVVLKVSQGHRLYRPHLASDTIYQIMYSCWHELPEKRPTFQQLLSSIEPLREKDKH
smiles,measurement,setting,value
COc1ccc2c3ccnc(Cl)c3n(CC#N)c2c1 [AnnH75],"residual activity at 1 µM, Mean",S6K-beta,102 % of control
same,"residual activity at 1 µM, Mean",ITK,95 % of control
same,"residual activity at 1 µM, Mean",MKK6 (S207D/T211D),100 % of control
same,"residual activity at 1 µM, Mean",SGK2,99 % of control
same,"residual activity at 1 µM, Mean",LRRK2,83 % of control
same,"residual activity at 1 µM, Mean",TGFB-R1,104 % of control
same,"residual activity at 1 µM, Mean",PIM1,41 % of control
same,"residual activity at 1 µM, Mean",ASK1,104 % of control
same,"residual activity at 1 µM, Mean",VEGF-R1,89 % of control
same,"residual activity at 1 µM, Mean",IKK-beta,91 % of control
same,"residual activity at 1 µM, Mean",S6K,85 % of control
same,"residual activity at 1 µM, Mean",CDK2/CycE1,97 % of control
same,"residual activity at 1 µM, Mean",SNF1LK2,91 % of control
same,"residual activity at 1 µM, Mean",HIPK1,91 % of control
same,"residual activity at 1 µM, Mean",PIM2,107 % of control
same,"residual activity at 1 µM, Mean",GRK4,49 % of control
same,"residual activity at 1 µM, Mean",CK1-gamma1,92 % of control
same,"residual activity at 1 µM, Mean",MEK1,72 % of control
same,"residual activity at 1 µM, Mean",PHKG2,94 % of control
same,"residual activity at 1 µM, Mean",PKC-beta2,108 % of control
same,"residual activity at 1 µM, Mean",TRK-B,72 % of control
same,"residual activity at 1 µM, Mean",RIPK2,94 % of control
same,"residual activity at 1 µM, Mean",MET,100 % of control
same,"residual activity at 1 µM, Mean",PDGFR-alpha,102 % of control
same,"residual activity at 1 µM, Mean",Aurora-B,104 % of control
same,"residual activity at 1 µM, Mean",MST3,104 % of control
same,"residual activity at 1 µM, Mean",TAOK2,98 % of control
same,"residual activity at 1 µM, Mean",CDK8/CycC,18 % of control
same,"residual activity at 1 µM, Mean",AXL,95 % of control
same,"residual activity at 1 µM, Mean",BMX,79 % of control
same,"residual activity at 1 µM, Mean",JNK2,100 % of control
same,"residual activity at 1 µM, Mean",GSG2 (Haspin),5 % of control
same,"residual activity at 1 µM, Mean",CAMK2B,92 % of control
same,"residual activity at 1 µM, Mean",CDC42BPA,76 % of control
same,"residual activity at 1 µM, Mean",PAK1,103 % of control
same,"residual activity at 1 µM, Mean",PLK3,96 % of control
same,"residual activity at 1 µM, Mean",MYLK3,94 % of control
same,"residual activity at 1 µM, Mean",RON,96 % of control
same,"residual activity at 1 µM, Mean",ALK,98 % of control
